Legend:
Conditions in all cases: 72 h
[1] = tested on: myeloid leukemia patient primary cells Pat.6; experiment: cell viability (% survival relative to DMSO control); higher = less cytotoxic
Procedure, shortened: (§1)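 Where an area under the curve appears, it was computed with the drc and PharmacoGx R packages from log-logistic fits. Those fits used four parameters. The underlying viability data came from CellTiter-Glo after 72 h, normalised to DMSO and 10 μM proteasome-inhibitor wells, with thawed, Ficoll-purified AML or CML patient mononuclear cells at 10,000 cells/well in RPMI 1640 with 10% FBS on 384-well plates pre-printed with 70 compounds at five tenfold concentrations (1–10,000 nM) in duplicate.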

[2] = tested on: myeloid leukemia patient primary cells Pat.3; experiment: as above
Procedure, shortened: as §1

[3] = tested on: myeloid leukemia patient primary cells Pat.8; experiment: as above
Procedure, shortened: as §1

[4] = tested on: myeloid leukemia patient primary cells Pat.15; experiment: as above
Procedure, shortened: as §1

[5] = tested on: myeloid leukemia patient primary cells Pat.4; experiment: as above
Procedure, shortened: as §1

[6] = tested on: myeloid leukemia patient primary cells Pat.10; experiment: as above
Procedure, shortened: as §1

[7] = tested on: myeloid leukemia patient primary cells Pat.11; experiment: as above
Procedure, shortened: as §1

[8] = tested on: myeloid leukemia patient primary cells Pat.12; experiment: as above
Procedure, shortened: as §1

[9] = tested on: myeloid leukemia patient primary cells Pat.9; experiment: as above
Procedure, shortened: as §1

[10] = tested on: myeloid leukemia patient primary cells Pat.14; experiment: as above
Procedure, shortened: as §1

[11] = tested on: myeloid leukemia patient primary cells Pat.5; experiment: as above
Procedure, shortened: as §1

[12] = tested on: myeloid leukemia patient primary cells Pat.7; experiment: as above
Procedure, shortened: as §1

[13] = tested on: myeloid leukemia patient primary cells Pat.1; experiment: as above
Procedure, shortened: as §1

[14] = tested on: myeloid leukemia patient primary cells Pat.13; experiment: as above
Procedure, shortened: as §1

[15] = tested on: myeloid leukemia patient primary cells Pat.2; experiment: as above
Procedure, shortened: as §1

Mono-Mac-6 = experiment: cell viability (% survival relative to DMSO control, bortezomib = 0%); higher = less cytotoxic
Procedure, shortened: (§2)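 Percent survival is reported as the mean of duplicate wells. Cells from 10 AML and 5 CML lines were plated in 384-well plates containing compounds at 1, 10, 100, 1000 or 10000 nM and kept for 72 h at 37 °C in 5% CO2. Readout used CellTiter-Glo luminescence, scaled so that vehicle equals 100% and a 10 µM positive control equals 0%.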

KU-812 = experiment: as above
Procedure, shortened: as §2

NOMO-1 = experiment: as above
Procedure, shortened: as §2

THP-1 = experiment: as above
Procedure, shortened: as §2

## CCC(CC#N)OC(=O)N[C@@H](C)c1cccc(NC(=O)Nc2ccc(-c3cnco3)c(OC)c2)c1 (stereo in doubt) [AVN-944]
[1]; 1 nM
  cell viability: 97.1%
[1]; 10 nM
  cell viability: 90.8%
[1]; 100 nM
  cell viability: 92.9%
[1]; 1000 nM
  cell viability: 87.4%
[1]; 10000 nM
  cell viability: 64%
[2]; 1 nM
  cell viability: > 100%
[2]; 10 nM
  cell viability: 80.4%
[2]; 100 nM
  cell viability: 51.2%
[2]; 1000 nM
  cell viability: 29.3%
[2]; 10000 nM
  cell viability: 20%
[3]; 1 nM
  cell viability: 82.5%
[3]; 10 nM
  cell viability: 92.3%
[3]; 100 nM
  cell viability: 86.4%
[3]; 1000 nM
  cell viability: 68.7%
[3]; 10000 nM
  cell viability: 58.1%
[4]; 1 nM
  cell viability: 94.9%
[4]; 10 nM
  cell viability: > 100%
[4]; 100 nM
  cell viability: 83.3%
[4]; 1000 nM
  cell viability: 89.7%
[4]; 10000 nM
  cell viability: 71.1%
[5]; 1 nM
  cell viability: 86%
[5]; 10 nM
  cell viability: 90.7%
[5]; 100 nM
  cell viability: 92.9%
[5]; 1000 nM
  cell viability: 63%
[5]; 10000 nM
  cell viability: 33.4%
[6]; 1 nM
  cell viability: > 100%
[6]; 10 nM
  cell viability: 66.9%
[6]; 100 nM
  cell viability: 41.6%
[6]; 1000 nM
  cell viability: 58.3%
[6]; 10000 nM
  cell viability: 4.94%
[7]; 1 nM
  cell viability: > 100%
[7]; 10 nM
  cell viability: 99.4%
[7]; 100 nM
  cell viability: 90.8%
[7]; 1000 nM
  cell viability: 86.2%
[7]; 10000 nM
  cell viability: 60.6%
[8]; 1 nM
  cell viability: 98.7%
[8]; 10 nM
  cell viability: > 100%
[8]; 100 nM
  cell viability: 87.7%
[8]; 1000 nM
  cell viability: > 100%
[8]; 10000 nM
  cell viability: 92.9%
[9]; 1 nM
  cell viability: 74.9%
[9]; 10 nM
  cell viability: 72.1%
[9]; 100 nM
  cell viability: 50%
[9]; 1000 nM
  cell viability: 15.9%
[9]; 10000 nM
  cell viability: 1.99%
[10]; 1 nM
  cell viability: 88.2%
[10]; 10 nM
  cell viability: 97.5%
[10]; 100 nM
  cell viability: 84.9%
[10]; 1000 nM
  cell viability: 63.5%
[10]; 10000 nM
  cell viability: 34.3%
[11]; 1 nM
  cell viability: 56.9%
[11]; 10 nM
  cell viability: 45.4%
[11]; 100 nM
  cell viability: 40.4%
[11]; 1000 nM
  cell viability: 9.12%
[11]; 10000 nM
  cell viability: 5.69%
[12]; 1 nM
  cell viability: 98.1%
[12]; 10 nM
  cell viability: 91.5%
[12]; 100 nM
  cell viability: 25.3%
[12]; 1000 nM
  cell viability: 17.6%
[12]; 10000 nM
  cell viability: < 0%
[13]; 1 nM
  cell viability: 90.9%
[13]; 10 nM
  cell viability: 85.7%
[13]; 100 nM
  cell viability: 87.2%
[13]; 1000 nM
  cell viability: 82.4%
[13]; 10000 nM
  cell viability: 65.8%
[14]; 1 nM
  cell viability: 91.5%
[14]; 10 nM
  cell viability: 93.1%
[14]; 100 nM
  cell viability: 90.6%
[14]; 1000 nM
  cell viability: 63.4%
[14]; 10000 nM
  cell viability: 36.5%
[15]; 1 nM
  cell viability: > 100%
[15]; 10 nM
  cell viability: 98.9%
[15]; 100 nM
  cell viability: 81.5%
[15]; 1000 nM
  cell viability: 81.8%
[15]; 10000 nM
  cell viability: 83.1%
Mono-Mac-6; 1 nM
  cell viability: 90.2%
Mono-Mac-6; 10 nM
  cell viability: 90.5%
Mono-Mac-6; 100 nM
  cell viability: 60.2%
Mono-Mac-6; 1000 nM
  cell viability: 16.4%
Mono-Mac-6; 10000 nM
  cell viability: 8.67%
KU-812; 1 nM
  cell viability: 93.6%
KU-812; 10 nM
  cell viability: 106%
KU-812; 100 nM
  cell viability: 50.2%
KU-812; 1000 nM
  cell viability: 9.58%
KU-812; 10000 nM
  cell viability: 3.66%
NOMO-1; 1 nM
  cell viability: 99.9%
NOMO-1; 10 nM
  cell viability: 101%
NOMO-1; 100 nM
  cell viability: 86.5%
NOMO-1; 1000 nM
  cell viability: 34%
NOMO-1; 10000 nM
  cell viability: 10.4%
THP-1; 1 nM
  cell viability: 101%
THP-1; 10 nM
  cell viability: 99.7%
THP-1; 100 nM
  cell viability: 101%
THP-1; 1000 nM
  cell viability: 65.3%
THP-1; 10000 nM
  cell viability: 43.1%

## Oc1ncc(F)c(O)n1 [5-fluorouracil]
[1]; 1 nM
  cell viability: > 100%
[1]; 10 nM
  cell viability: 96.6%
[1]; 100 nM
  cell viability: 95.8%
[1]; 1000 nM
  cell viability: 99.3%
[1]; 10000 nM
  cell viability: 98.5%
[2]; 1 nM
  cell viability: 90.4%
[2]; 10 nM
  cell viability: 96.5%
[2]; 100 nM
  cell viability: 94.5%
[2]; 1000 nM
  cell viability: 96.6%
[2]; 10000 nM
  cell viability: 41.9%
[3]; 1 nM
  cell viability: 85.8%
[3]; 10 nM
  cell viability: 86.3%
[3]; 100 nM
  cell viability: 94.5%
[3]; 1000 nM
  cell viability: 80.1%
[3]; 10000 nM
  cell viability: 98.7%
[4]; 1 nM
  cell viability: 83.4%
[4]; 10 nM
  cell viability: 91.5%
[4]; 100 nM
  cell viability: 96.7%
[4]; 1000 nM
  cell viability: 91%
[4]; 10000 nM
  cell viability: 93.9%
[5]; 1 nM
  cell viability: 90.8%
[5]; 10 nM
  cell viability: 88.4%
[5]; 100 nM
  cell viability: 92.1%
[5]; 1000 nM
  cell viability: 88.9%
[5]; 10000 nM
  cell viability: 60.6%
[6]; 1 nM
  cell viability: > 100%
[6]; 10 nM
  cell viability: 78.1%
[6]; 100 nM
  cell viability: 65%
[6]; 1000 nM
  cell viability: 68.9%
[6]; 10000 nM
  cell viability: 50.5%
[7]; 1 nM
  cell viability: 99.9%
[7]; 10 nM
  cell viability: 97.2%
[7]; 100 nM
  cell viability: 96.6%
[7]; 1000 nM
  cell viability: 96.7%
[7]; 10000 nM
  cell viability: 95.7%
[8]; 1 nM
  cell viability: 94.2%
[8]; 10 nM
  cell viability: 95.4%
[8]; 100 nM
  cell viability: 87.6%
[8]; 1000 nM
  cell viability: 95.5%
[8]; 10000 nM
  cell viability: 91.4%
[9]; 1 nM
  cell viability: 76.6%
[9]; 10 nM
  cell viability: 52.3%
[9]; 100 nM
  cell viability: 92.6%
[9]; 1000 nM
  cell viability: 71.4%
[9]; 10000 nM
  cell viability: 45.4%
[10]; 1 nM
  cell viability: 94.6%
[10]; 10 nM
  cell viability: 87%
[10]; 100 nM
  cell viability: 90.3%
[10]; 1000 nM
  cell viability: 90.2%
[10]; 10000 nM
  cell viability: 84.9%
[11]; 1 nM
  cell viability: 88.1%
[11]; 10 nM
  cell viability: 90.3%
[11]; 100 nM
  cell viability: 84.7%
[11]; 1000 nM
  cell viability: 61.3%
[11]; 10000 nM
  cell viability: 13.9%
[12]; 1 nM
  cell viability: 89.7%
[12]; 10 nM
  cell viability: 83.9%
[12]; 100 nM
  cell viability: 82.8%
[12]; 1000 nM
  cell viability: 92.8%
[12]; 10000 nM
  cell viability: 50.8%
[13]; 1 nM
  cell viability: 88.5%
[13]; 10 nM
  cell viability: 93.1%
[13]; 100 nM
  cell viability: 91%
[13]; 1000 nM
  cell viability: 97%
[13]; 10000 nM
  cell viability: 85.8%
[14]; 1 nM
  cell viability: 88.8%
[14]; 10 nM
  cell viability: 91.2%
[14]; 100 nM
  cell viability: 90%
[14]; 1000 nM
  cell viability: 72.7%
[14]; 10000 nM
  cell viability: 81%
[15]; 1 nM
  cell viability: 95.9%
[15]; 10 nM
  cell viability: 94.9%
[15]; 100 nM
  cell viability: 99.1%
[15]; 1000 nM
  cell viability: 88.9%
[15]; 10000 nM
  cell viability: 97.5%
Mono-Mac-6; 1 nM
  cell viability: 95.4%
Mono-Mac-6; 10 nM
  cell viability: 95.5%
Mono-Mac-6; 100 nM
  cell viability: 88.4%
Mono-Mac-6; 1000 nM
  cell viability: 47.9%
Mono-Mac-6; 10000 nM
  cell viability: 19.3%
KU-812; 1 nM
  cell viability: 97.6%
KU-812; 10 nM
  cell viability: 100%
KU-812; 100 nM
  cell viability: 88.4%
KU-812; 1000 nM
  cell viability: 88%
KU-812; 10000 nM
  cell viability: 66.6%
NOMO-1; 1 nM
  cell viability: 92.2%
NOMO-1; 10 nM
  cell viability: 105%
NOMO-1; 100 nM
  cell viability: 95.1%
NOMO-1; 1000 nM
  cell viability: 68.5%
NOMO-1; 10000 nM
  cell viability: 61.9%
THP-1; 1 nM
  cell viability: 101%
THP-1; 10 nM
  cell viability: 111%
THP-1; 100 nM
  cell viability: 99.3%
THP-1; 1000 nM
  cell viability: 97.8%
THP-1; 10000 nM
  cell viability: 63.3%
